Experiment [1] concerns the target T1, JNK3 (Homo sapiens, UniProt P53779). The experiment can be described thus: biochemical.
The target of the next experiment is JNK2 (Homo sapiens, UniProt P45984). Nature of the experiment: Kinase panel screening, single dose 10 μM. The conditions noted are these: single dose concentration of 10 μM; read-out: inhibitory activity for JNK2. Format: biochemical.
The target in experiment [2] is T1, JNK3. The experiment can be described thus: Kinase panel screening, single dose 10 μM. Format: biochemical. The conditions noted are these: single dose concentration of 10 μM; read-out: inhibitory activity for JNK3.
Another experiment addresses GSK-β (Homo sapiens, UniProt P49841). Nature of the experiment: Kinase panel screening, single dose 10 μM. Format: biochemical. The conditions noted are these: single dose concentration of 10 μM; read-out: inhibitory activity for GSK-β.
The next experiment concerns the target RIPK3 (Homo sapiens, UniProt Q9Y572). Nature of the experiment: Kinase panel screening, single dose 10 μM. Format: biochemical. To be noted: single dose concentration of 10 μM; read-out: inhibitory activity for RIPK3.

pIC50: −log10 of the molar value. Read-outs that look alike come from different tables or passages of the source.

T1 sequence (P53779 whole entry): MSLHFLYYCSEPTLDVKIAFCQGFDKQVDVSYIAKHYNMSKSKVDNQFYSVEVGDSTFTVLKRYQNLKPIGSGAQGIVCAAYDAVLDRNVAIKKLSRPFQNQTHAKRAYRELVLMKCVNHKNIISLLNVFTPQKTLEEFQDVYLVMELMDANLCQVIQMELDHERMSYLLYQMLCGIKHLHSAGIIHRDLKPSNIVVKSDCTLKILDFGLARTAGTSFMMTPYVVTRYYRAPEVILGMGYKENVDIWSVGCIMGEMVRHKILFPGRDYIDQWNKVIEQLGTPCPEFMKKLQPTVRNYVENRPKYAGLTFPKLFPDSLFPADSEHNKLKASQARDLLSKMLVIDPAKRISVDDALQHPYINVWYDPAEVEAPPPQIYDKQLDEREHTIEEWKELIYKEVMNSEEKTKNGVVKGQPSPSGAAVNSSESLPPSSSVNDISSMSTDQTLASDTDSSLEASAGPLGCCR
JNK2, sequence (P45984 whole entry, species assumed): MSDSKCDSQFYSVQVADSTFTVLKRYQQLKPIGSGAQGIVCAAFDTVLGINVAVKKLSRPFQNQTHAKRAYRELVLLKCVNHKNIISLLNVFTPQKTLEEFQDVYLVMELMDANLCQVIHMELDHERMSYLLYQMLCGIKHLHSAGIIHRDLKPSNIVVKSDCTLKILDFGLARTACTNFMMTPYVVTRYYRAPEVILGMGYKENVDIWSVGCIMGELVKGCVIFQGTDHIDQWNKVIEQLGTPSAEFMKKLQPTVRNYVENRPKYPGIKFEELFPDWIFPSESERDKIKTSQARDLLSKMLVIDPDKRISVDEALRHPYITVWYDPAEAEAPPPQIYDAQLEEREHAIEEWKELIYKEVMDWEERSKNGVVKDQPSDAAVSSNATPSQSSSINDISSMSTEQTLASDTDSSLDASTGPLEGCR
RIPK3, sequence (Q9Y572 whole entry, species assumed): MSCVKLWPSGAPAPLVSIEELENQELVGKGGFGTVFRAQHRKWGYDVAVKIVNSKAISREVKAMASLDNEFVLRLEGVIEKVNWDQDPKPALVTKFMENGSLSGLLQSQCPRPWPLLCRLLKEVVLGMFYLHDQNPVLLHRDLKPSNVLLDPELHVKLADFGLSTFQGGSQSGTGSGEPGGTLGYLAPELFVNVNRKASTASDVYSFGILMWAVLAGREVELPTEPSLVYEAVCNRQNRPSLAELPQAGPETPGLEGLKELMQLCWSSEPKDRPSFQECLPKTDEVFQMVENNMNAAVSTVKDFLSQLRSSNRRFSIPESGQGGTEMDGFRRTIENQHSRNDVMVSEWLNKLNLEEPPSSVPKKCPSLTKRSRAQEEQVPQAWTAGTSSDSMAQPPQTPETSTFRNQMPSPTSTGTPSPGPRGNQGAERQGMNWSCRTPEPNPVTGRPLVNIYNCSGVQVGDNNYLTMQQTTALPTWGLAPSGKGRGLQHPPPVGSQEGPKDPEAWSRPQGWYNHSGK
GSK-β, sequence (P49841 whole entry): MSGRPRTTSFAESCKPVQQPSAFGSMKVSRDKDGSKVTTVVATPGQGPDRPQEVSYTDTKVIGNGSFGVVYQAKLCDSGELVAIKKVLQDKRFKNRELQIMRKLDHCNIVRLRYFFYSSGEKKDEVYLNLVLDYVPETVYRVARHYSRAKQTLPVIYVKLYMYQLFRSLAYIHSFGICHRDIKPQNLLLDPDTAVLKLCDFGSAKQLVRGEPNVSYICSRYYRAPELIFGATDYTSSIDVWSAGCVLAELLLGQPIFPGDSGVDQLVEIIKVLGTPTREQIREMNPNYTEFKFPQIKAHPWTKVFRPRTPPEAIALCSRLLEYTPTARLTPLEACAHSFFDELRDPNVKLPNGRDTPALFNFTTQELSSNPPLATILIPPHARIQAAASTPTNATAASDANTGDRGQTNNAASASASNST

The compound `O=C(C1CC1)N1CCC[C@H](Nc2nccc(-n3c(-c4ccc(Cl)c(Cl)c4)nc4c3CN(C(=O)N3CCC(O)CC3)C4)n2)C1` [Compound 16a, (S)-(1-(2-((1-(cyclopropanecarbonyl)piperidin-3-yl)amino)pyrimidin-4-yl)-2-(3,4-dichlorophenyl)-4,6-dihydropyrrolo[3,4-d]imidazol-5(1H)-yl)(4-hydroxypiperidin-1-yl)methanone] had a pIC50 against JNK3 [1] above 7.52.

Take `NC(=O)N1Cc2nc(-c3ccc(Cl)c(Cl)c3)n(-c3ccnc(N[C@H]4CCCN(C(=O)C5CC5)C4)n3)c2C1` [Compound 16b, (S)-1-(2-((1-(cyclopropanecarbonyl)piperidin-3-yl)amino)pyrimidin-4-yl)-2-(3,4-dichlorophenyl)-4,6-dihydropyrrolo[3,4-d]imidazole-5(1H)-carboxamide]: on JNK3 [1] (JNK3 enzyme activity, Table 1, read-out: IC50), the pIC50 is above 7.52.

Consider `NC(=O)N1Cc2nc(-c3ccc(Cl)c(Cl)c3)n(-c3ccnc(N[C@@H]4CCN(C(=O)C5CC5)C4)n3)c2C1` [Compound 16c, (R)-1-(2-((1-(cyclopropanecarbonyl)pyrrolidin-3-yl)amino)pyrimidin-4-yl)-2-(3,4-dichlorophenyl)-4,6-dihydropyrrolo[3,4-d]imidazole-5(1H)-carboxamide], for which the inhibition at 10 µM came out at 100% on JNK2, 100% on JNK3 [2], 70% on GSK-β and 50% on RIPK3.

For the compound `NC(=O)N1Cc2nc(-c3ccc4c(c3)OCO4)n(-c3ccnc(N[C@H]4CCCN(C(=O)C5CCC5)C4)n3)c2C1` [Compound 16m, (S)-2-(benzo[d][1,3]dioxol-5-yl)-1-(2-((1-(cyclobutanecarbonyl)piperidin-3-yl)amino)pyrimidin-4-yl)-4,6-dihydropyrrolo[3,4-d]imidazole-5(1H)-carboxamide], the pIC50 at JNK3 [1] (JNK3 enzyme activity, Table 2, read-out: IC50) is 5.00 to 7.00.
